Toxic doses and inconclusive results are not listed. No stated cut-off is given here; in the data, active means T/C of 150% or more; inactive means T/C below 125%.
Tested on: L1210 leukemia ip in BDF1 mice, survival T/C
Assay: NCI In Vivo Anticancer Drug Screen. Data for tumor model L1210 Leukemia (intraperitoneal) in B6D2F1 (BDF1) mice
Details: endpoint: mean survival time, higher = longer survival
Outline: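 Mice bearing the transplanted tumor received compound or vehicle. Survival of the treated group was divided by that of the vehicle-treated control group to give the ratio.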

[1] = dose: 100.0 mg/kg/injection, schedule: Q01DX009 (ip), vehicle: Klucel (hydroxypropylcellulose) (HPC)
[2] = dose: 100.0 mg/kg/injection, schedule: Q04DX003 (ip), vehicle: Klucel (hydroxypropylcellulose) (HPC)
[3] = dose: 200.0 mg/kg/injection, schedule: Q01DX009 (ip), vehicle: Klucel (hydroxypropylcellulose) (HPC)
[4] = dose: 200.0 mg/kg/injection, schedule: Q04DX003 (ip), vehicle: Klucel (hydroxypropylcellulose) (HPC)
[5] = dose: 400.0 mg/kg/injection, schedule: Q04DX003 (ip), vehicle: Klucel (hydroxypropylcellulose) (HPC)
[6] = dose: 100.0 mg/kg/injection, schedule: Q01DX001 (ip), vehicle: carboxymethylcellulose (CMC)
[7] = dose: 200.0 mg/kg/injection, schedule: Q01DX001 (ip), vehicle: carboxymethylcellulose (CMC)
[8] = dose: 400.0 mg/kg/injection, schedule: Q01DX009 (ip), vehicle: Klucel (hydroxypropylcellulose) (HPC)
[9] = dose: 50.0 mg/kg/injection, schedule: Q01DX001 (ip), vehicle: carboxymethylcellulose (CMC)
[10] = dose: 400.0 mg/kg/injection, schedule: Q01DX001 (ip), vehicle: carboxymethylcellulose (CMC)

Measured: T/C

CCCCOC(=O)c1[nH]cnc1/N=N\N(C)C
inactive: dose: 10.0 mg/kg/injection, schedule: Q01DX009 (ip), vehicle: carboxymethylcellulose (CMC) 100 % of control | dose: 18.0 mg/kg/injection, schedule: Q01DX001 (ip), vehicle: other 98 % of control | dose: 20.0 mg/kg/injection, schedule: Q01DX009 (ip), vehicle: carboxymethylcellulose (CMC) 109 % of control | dose: 28.0 mg/kg/injection, schedule: Q01DX001 (ip), vehicle: other 93 % of control | dose: 40.0 mg/kg/injection, schedule: Q01DX009 (ip), vehicle: carboxymethylcellulose (CMC) 114 % of control | dose: 42.0 mg/kg/injection, schedule: Q01DX001 (ip), vehicle: other 100 % of control | dose: 63.0 mg/kg/injection, schedule: Q01DX001 (ip), vehicle: other 102 % of control | dose: 72.0 mg/kg/injection, schedule: Q01DX015 (ip), vehicle: other 110 % of control | dose: 100.0 mg/kg/injection, schedule: Q01DX001 (ip), vehicle: other 111 % of control | dose: 120.0 mg/kg/injection, schedule: Q01DX015 (ip), vehicle: other 101 % of control

OC(Cc1cc(CC(O)(C(F)(F)F)C(F)(F)F)n(-c2ccccc2)n1)(C(F)(F)F)C(F)(F)F
inactive: dose: 100.0 mg/kg/injection, schedule: Q04DX003 (ip), vehicle: saline with Tween-80 97 % of control | dose: 200.0 mg/kg/injection, schedule: Q04DX003 (ip), vehicle: saline with Tween-80 97 % of control | dose: 400.0 mg/kg/injection, schedule: Q04DX003 (ip), vehicle: saline with Tween-80 95 % of control

CCCCCCCCCCCC(O)CCCC (stereo not given)
inactive: [1] 90 % of control | [2] 96 % of control | [3] 95 % of control | [4] 91 % of control | [5] 90 % of control

COc1ccc(/C=C/C(C)=O)cc1OC
inactive: dose: 6.25 mg/kg/injection, schedule: Q01DX009 (ip), vehicle: saline 91 % of control | dose: 12.5 mg/kg/injection, schedule: Q01DX009 (ip), vehicle: saline 100 % of control | dose: 25.0 mg/kg/injection, schedule: Q01DX009 (ip), vehicle: saline 91 % of control | dose: 50.0 mg/kg/injection, schedule: Q01DX009 (ip), vehicle: saline 87 % of control | dose: 100.0 mg/kg/injection, schedule: Q01DX009 (ip), vehicle: saline 88 % of control | dose: 200.0 mg/kg/injection, schedule: Q01DX009 (ip), vehicle: saline 88 % of control

C=C(C)[C@@H](/C=C/[C@@H](C)[C@H]1CC[C@H]2C3=CC[C@H]4C[C@@H](O)CC[C@]4(C)[C@H]3CC[C@]12C)CC
inactive: [6] 96 % of control | [7] 100 % of control

CC1=CC(=O)c2ccccc2C1=O
inactive: dose: 10.0 mg/kg/injection, schedule: Q01DX015 (ip), vehicle: carboxymethylcellulose (CMC) 90 % of control | dose: 15.0 mg/kg/injection, schedule: Q01DX015 (ip), vehicle: carboxymethylcellulose (CMC) 90 % of control | dose: 20.0 mg/kg/injection, schedule: Q01DX015 (ip), vehicle: carboxymethylcellulose (CMC) 90 % of control | dose: 43.0 mg/kg/injection, schedule: Q01DX001 (ip), vehicle: carboxymethylcellulose (CMC) 97 % of control | dose: 64.0 mg/kg/injection, schedule: Q01DX001 (ip), vehicle: carboxymethylcellulose (CMC) 102 % of control | dose: 85.0 mg/kg/injection, schedule: Q01DX001 (ip), vehicle: carboxymethylcellulose (CMC) 108 % of control

Nc1nc(N)c2cc(CNc3ccc(C(=O)NC(CCCC(=O)O)C(=O)O)cc3)ccc2n1 (stereo not given)
inactive: dose: 0.25 mg/kg/injection, schedule: Q01DX009 (ip), vehicle: saline 124 % of control | dose: 0.5 mg/kg/injection, schedule: Q01DX009 (ip), vehicle: saline 117 % of control | dose: 2.0 mg/kg/injection, schedule: Q01DX009 (ip), vehicle: saline 101 % of control | dose: 16.0 mg/kg/injection, schedule: Q04DX003 (ip), vehicle: saline 92 % of control

OC1(C#CC2(O)c3ccccc3-c3ccccc32)c2ccccc2-c2ccccc21
inactive: [1] 93 % of control | [2] 106 % of control | [3] 97 % of control | [4] 106 % of control | [8] 93 % of control | [5] 100 % of control

N#C/C(=C\c1ccco1)c1ccc([N+](=O)[O-])cc1
inactive: dose: 6.25 mg/kg/injection, schedule: Q01DX009 (ip), vehicle: saline with Tween-80 90 % of control | dose: 12.5 mg/kg/injection, schedule: Q01DX009 (ip), vehicle: saline with Tween-80 90 % of control | dose: 25.0 mg/kg/injection, schedule: Q01DX009 (ip), vehicle: saline with Tween-80 95 % of control

COC1=C(Nc2cccc(C)c2)C(=O)C(OC)=C(Nc2cccc(C)c2)C1=O
inactive: [9] 94 % of control | [6] 96 % of control | [7] 94 % of control | [10] 91 % of control

CC1(C)C=C(C(Br)c2ccc(Cl)cc2)C(=O)c2ccccc21 (stereo not given)
inactive: dose: 50.0 mg/kg/injection, schedule: Q01DX009 (ip), vehicle: Klucel (hydroxypropylcellulose) (HPC) 110 % of control | [1] 105 % of control | [2] 95 % of control | [3] 100 % of control | [4] 92 % of control

Cn1c(=O)c2c(ncn2CCO)n(C)c1=O (tested in a mixture with another compound)
inactive: dose: 100.0 mg/kg/injection, schedule: Q01DX009 (ip), vehicle: saline with Tween-80 89 % of control | dose: 100.0 mg/kg/injection, schedule: Q04DX003 (ip), vehicle: saline 103 % of control | dose: 200.0 mg/kg/injection, schedule: Q01DX009 (ip), vehicle: saline with Tween-80 94 % of control | dose: 200.0 mg/kg/injection, schedule: Q04DX003 (ip), vehicle: saline 97 % of control | dose: 400.0 mg/kg/injection, schedule: Q01DX009 (ip), vehicle: saline with Tween-80 87 % of control | dose: 400.0 mg/kg/injection, schedule: Q04DX003 (ip), vehicle: saline 108 % of control

Cc1ccc(Cl)cc1N1C(=O)CC(Sc2ccccc2N)C1=O (stereo not given)
inactive: [1] 90 % of control | [2] 90 % of control | [3] 90 % of control | [4] 95 % of control | [8] 90 % of control | [5] 90 % of control

COC(=O)CC(=O)c1ccc2ccccc2n1
inactive: [9] 108 % of control | [6] 100 % of control | [7] 97 % of control | [10] 105 % of control

c1ccc2c(c1)ccc1ncccc12
inactive: [2] 103 % of control | [4] 102 % of control | [5] 101 % of control

Fc1c(F)c(C(F)(F)F)c(F)c(F)c1P(c1c(F)c(F)c(C(F)(F)F)c(F)c1F)c1c(F)c(F)c(C(F)(F)F)c(F)c1F
inactive: dose: 75.0 mg/kg/injection, schedule: Q01DX009 (ip), vehicle: Klucel (hydroxypropylcellulose) (HPC) 123 % of control | [2] 97 % of control | dose: 150.0 mg/kg/injection, schedule: Q01DX009 (ip), vehicle: Klucel (hydroxypropylcellulose) (HPC) 96 % of control | [4] 100 % of control | dose: 300.0 mg/kg/injection, schedule: Q01DX009 (ip), vehicle: Klucel (hydroxypropylcellulose) (HPC) 100 % of control | [5] 100 % of control

Cc1ccc(NC(=O)Oc2ccc(Nc3ccccc3)cc2)cc1
inactive: [1] 103 % of control | dose: 100.0 mg/kg/injection, schedule: Q04DX002 (ip), vehicle: Klucel (hydroxypropylcellulose) (HPC) 98 % of control | [3] 95 % of control | dose: 200.0 mg/kg/injection, schedule: Q04DX002 (ip), vehicle: Klucel (hydroxypropylcellulose) (HPC) 95 % of control | [8] 98 % of control | dose: 400.0 mg/kg/injection, schedule: Q04DX002 (ip), vehicle: Klucel (hydroxypropylcellulose) (HPC) 91 % of control

Reference: PubChem BioAssay AID248 (DTP/NCI, 2004)
